Measured values from US11109593B2, “Isoxazolin-5-one derivative and herbicide containing same as active ingredient” (HOKKO CHEMICAL INDUSTRY CO., LTD., priority 2017, dated 2021).

Tests used:
Format in all cases: in vivo
Scirpus juncoides [1] = assay: Test Example 1: herbicidal effect test by treatment of rice paddy soil (immediately after seeding); conditions: 120 g/10a active ingredient, dry weight vs untreated area, 14 days after treatment
Summary of the method: (§1)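 Applied at 120 g a.i./10 ares as diluted emulsion dropped into flooded (~3 cm) paddy soil pots right after sowing seeds 0–1 cm deep; greenhouse, two replicates. At day 14, dry weight of treated versus untreated plants gives % herbicidal rate.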

Echinochloa crus-galli [2] = assay: as above; conditions: 120 g/10a active ingredient, dry weight vs untreated area, 14 days after treatment
Summary of the method: as §1

[3] = tested on: broad leaf weeds (Lindernia pyxidaria and Monochoria vaginalis); assay: as above; conditions: 120 g/10a active ingredient, dry weight vs untreated area, 14 days after treatment
Summary of the method: as §1

Amaranthus viridis [4] = assay: Test Example 3: herbicidal effect test by treatment of dry field farming soil (one day after seeding); conditions: 120 g/10a active ingredient, evaluated 14 days after treatment
Summary of the method: (§2)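 Alluvial dry-field soil in pots, top 1 cm mixed with 20 seeds per weed species. One day after seeding, the water-diluted emulsion was sprayed onto the soil surface at 100 L per 10 ares (120 g active ingredient per 10 ares). Duplicate pots; herbicidal rate (%) from plant dry weight versus untreated, 14 days after treatment.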

Echinochloa crus-galli [5] = assay: as above; conditions: 120 g/10a active ingredient, evaluated 14 days after treatment
Summary of the method: as §2

southern crabgrass [6] = assay: as above; conditions: 120 g/10a active ingredient, evaluated 14 days after treatment
Summary of the method: as §2

Chenopodium album [7] = assay: as above; conditions: 120 g/10a active ingredient, evaluated 14 days after treatment
Summary of the method: as §2

Scirpus juncoides [8] = assay: Test Example 2: herbicidal effect test by treatment during growing period in paddy rice cultivation (seven days after seeding); conditions: 120 g/10a active ingredient, assessed 14 days after treatment, dry weight vs untreated area
Summary of the method: (§3)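 Seeds sown 0–1 cm deep in puddled, fertilised paddy soil with about 3 cm standing water in a glass greenhouse. Diluted emulsion dropped into the water seven days after seeding at 120 g active ingredient per 10 ares. Herbicidal rate (%) from mean dry weight vs untreated, duplicate, 14 days after treatment.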

Echinochloa crus-galli [9] = assay: as above; conditions: 120 g/10a active ingredient, assessed 14 days after treatment, dry weight vs untreated area
Summary of the method: as §3

[10] = tested on: broad leaf weeds (Lindernia pyxidaria and Monochoria vaginalis); assay: as above; conditions: 120 g/10a active ingredient, assessed 14 days after treatment, dry weight vs untreated area
Summary of the method: as §3

Amaranthus viridis [11] = assay: Test Example 4: herbicidal effect test by treatment of leave and stem in dry field farming (seven days after seeding); conditions: 120 g/10a active ingredient; emulsion sprayed seven days after seeding; evaluated 14 days after treatment
Summary of the method: (§4)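 Twenty seeds per species were mixed into the top 1 cm of alluvial soil in 36 cm^2 pots; emulsions were sprayed seven days after seeding at 100 L per 10 ares (120 g active ingredient per 10 ares). Herbicidal rate (%) = {1 − treated/untreated mean dry weight} × 100, 14 days after treatment, duplicate.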

Echinochloa crus-galli [12] = assay: as above; conditions: 120 g/10a active ingredient; emulsion sprayed seven days after seeding; evaluated 14 days after treatment
Summary of the method: as §4

southern crabgrass [13] = assay: as above; conditions: 120 g/10a active ingredient; emulsion sprayed seven days after seeding; evaluated 14 days after treatment
Summary of the method: as §4

Chenopodium album [14] = assay: as above; conditions: 120 g/10a active ingredient; emulsion sprayed seven days after seeding; evaluated 14 days after treatment
Summary of the method: as §4

| SMILES | Herbicidal rate (%) Scirpus juncoides (Scirpus juncoides [1]) | Herbicidal rate (%) Echinochloa crus-galli (Echinochloa crus-galli [2]) | Herbicidal rate (%) Lindernia pyxidaria [3] | Herbicidal rate (%) Monochoria vaginalis [3] | herbicidal rate, Amaranthus viridis (Amaranthus viridis [4]) | herbicidal rate, Echinochloa crus-galli (Echinochloa crus-galli [5]) | herbicidal rate, southern crabgrass (southern crabgrass [6]) | herbicidal rate, Chenopodium album (Chenopodium album [7]) | Herbicidal rate (%) Scirpus juncoides (Scirpus juncoides [8]) | Herbicidal rate (%) Echinochloa crus-galli (Echinochloa crus-galli [9]) | Herbicidal rate (%) Lindernia pyxidaria [10] | Herbicidal rate (%) Monochoria vaginalis [10] | herbicidal effect (herbicidal rate), Amaranthus viridis (Amaranthus viridis [11]) | herbicidal effect (herbicidal rate), Echinochloa crus-galli (Echinochloa crus-galli [12]) | herbicidal effect (herbicidal rate), southern crabgrass (southern crabgrass [13]) | herbicidal effect (herbicidal rate), Chenopodium album (Chenopodium album [14]) |
| --- | --- | --- | --- | --- | --- | --- | --- | --- | --- | --- | --- | --- | --- | --- | --- | --- |
| CCC(C)n1oc(=O)c(Cc2ccccc2N(S(C)(=O)=O)S(=O)(=O)C(F)(F)F)c1C (centres unmarked) [Compound 1-890] | 90% | 90% | 90% | 90% | 90% | 90% | 90% | 90% | 90% | 90% | 90% | 90% | 40% | 90% | 90% | 40% |
| CCC(CC)n1oc(=O)c(Cc2ccccc2N(C(=O)C(C)C)S(=O)(=O)C(F)(F)F)c1C [Compound 1-331] | 90% | 90% | 90% | 90% | 90% | 90% | 90% | 90% | 90% | 90% | 90% | 90% | 40% | 90% | 90% | 40% |
| Cc1c(Cc2ccccc2N(S(C)(=O)=O)S(=O)(=O)C(F)(F)F)c(=O)on1Cc1ccc(F)cc1 [Compound 1-906] | 100% | 100% | 100% | 100% | 50% | 100% | 90% | 70% | 100% | 90% | 100% | 100% | 100% | 90% | 50% | 50% |
| Cc1c(Cc2cc(Cl)ccc2NS(=O)(=O)C(F)(F)F)c(=O)on1C(C)C [Compound 1-41] | 100% | 100% | 100% | 100% | 0% | 90% | 90% | 50% | 60% | 90% | 90% | 80% | 60% | 90% | 90% | 90% |
| C=CCOC(=O)N(c1ccccc1Cc1c(C)n(C(C)c2ccccc2)oc1=O)S(=O)(=O)C(F)(F)F (centres unmarked) [Compound 1-710] | 90% | 90% | 90% | 90% | 90% | 90% | 90% | 90% | 90% | 90% | 90% | 90% | 40% | 90% | 90% | 40% |
